Patent US20220281848A1, “PYRAZOLE-SUBSTITUTED PYRROLIDINONES AS HERBICIDES” (FMC Corporation, priority 2019, published 2022)

Tested on: plants
Assay: Test D pre-emergence, other plants of Tables D1 and D3
Format: in vivo
Conditions: for damage to plant (100=total damage to plant; 0=no damage to plant), BIDPI / damage to plant (100=total damage to plant; 0=no damage to plant), BRAPL / damage to plant (100=total damage to plant; 0=no damage to plant), CYPES / damage to plant (100=total damage to plant; 0=no damage to plant), EPHHL / damage to plant (100=total damage to plant; 0=no damage to plant), GLXMA / damage to plant (100=total damage to plant; 0=no damage to plant), IPOHE / damage to plant (100=total damage to plant; 0=no damage to plant), SORVU / ABUTH damage to plant (100=total damage; 0=no damage) / AMARE damage to plant (100=total damage; 0=no damage) / DIGSA damage to plant (100=total damage; 0=no damage) / ECHCG damage to plant (100=total damage; 0=no damage) / ORYSA damage to plant (100=total damage; 0=no damage) / PANMI damage to plant (100=total damage; 0=no damage) / SETFA damage to plant (100=total damage; 0=no damage): preemergent; for damage to plant (100=total damage to plant; 0=no damage to plant), BIDPI / damage to plant (100=total damage to plant; 0=no damage to plant), BRAPL / CHEAL damage rating / damage to plant (100=total damage to plant; 0=no damage to plant), CYPES / damage to plant (100=total damage to plant; 0=no damage to plant), EPHHL / GALAP damage rating / damage to plant (100=total damage to plant; 0=no damage to plant), GLXMA / damage to plant (100=total damage to plant; 0=no damage to plant), IPOHE / KCHSC damage rating / LOLPE damage rating / POAAN damage rating / damage to plant (100=total damage to plant; 0=no damage to plant), SORVU / STEME damage rating / VERPE damage rating: 20 DAA; for CHEAL damage rating / GALAP damage rating / KCHSC damage rating / LOLPE damage rating / POAAN damage rating / STEME damage rating / VERPE damage rating / damage to plant, ALOMY / damage to plant, AVEFA / damage to plant, BEAVA / damage to plant, BROTE / damage to plant, BRSNN / damage to plant, HORVW / damage to plant, SINAR: pre-emergence, 100=total damage, 0=no damage
Summary of the method: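 Seeds treated with herbicide safener; sown in soil; glasshouse, 16 h light, 65% humidity. Sprayed day 1 (pre) or ~day 12 (post). Spray in 0.2% v/v adjuvant. Scored 0–100 damage: 20 DAA pre, 15 d post.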

## CN1CC(c2cc(C(F)(F)F)n(C)n2)C(C(=O)Nc2ccc(F)cc2C(C)(F)F)C1=O (racemic) [Compound 26]
Rate 15
  damage to plant (100=total damage to plant; 0=no damage to plant), BIDPI: 0
  damage to plant (100=total damage to plant; 0=no damage to plant), BRAPL: 0
  damage to plant (100=total damage to plant; 0=no damage to plant), CYPES: 0
  damage to plant (100=total damage to plant; 0=no damage to plant), EPHHL: 0
  damage to plant (100=total damage to plant; 0=no damage to plant), GLXMA: 0
  damage to plant (100=total damage to plant; 0=no damage to plant), IPOHE: 0
  damage to plant (100=total damage to plant; 0=no damage to plant), SORVU: 0
Rate 30
  damage to plant (100=total damage to plant; 0=no damage to plant), BIDPI: 0
  damage to plant (100=total damage to plant; 0=no damage to plant), BRAPL: 70
  damage to plant (100=total damage to plant; 0=no damage to plant), CYPES: 0
  damage to plant (100=total damage to plant; 0=no damage to plant), EPHHL: 0
  damage to plant (100=total damage to plant; 0=no damage to plant), GLXMA: 0
  damage to plant (100=total damage to plant; 0=no damage to plant), IPOHE: 0
  damage to plant (100=total damage to plant; 0=no damage to plant), SORVU: 0
Rate 60
  damage to plant (100=total damage to plant; 0=no damage to plant), BIDPI: 0
  damage to plant (100=total damage to plant; 0=no damage to plant), BRAPL: 80
  damage to plant (100=total damage to plant; 0=no damage to plant), CYPES: 0
  damage to plant (100=total damage to plant; 0=no damage to plant), EPHHL: 0
  damage to plant (100=total damage to plant; 0=no damage to plant), GLXMA: 0
  damage to plant (100=total damage to plant; 0=no damage to plant), IPOHE: 0
  damage to plant (100=total damage to plant; 0=no damage to plant), SORVU: 0
Rate 130
  damage to plant (100=total damage to plant; 0=no damage to plant), BIDPI: 0
  damage to plant (100=total damage to plant; 0=no damage to plant), BRAPL: 80
  damage to plant (100=total damage to plant; 0=no damage to plant), CYPES: 0
  damage to plant (100=total damage to plant; 0=no damage to plant), EPHHL: 0
  damage to plant (100=total damage to plant; 0=no damage to plant), GLXMA: 0
  damage to plant (100=total damage to plant; 0=no damage to plant), IPOHE: 0
  damage to plant (100=total damage to plant; 0=no damage to plant), SORVU: 0
Rate 250
  damage to plant (100=total damage to plant; 0=no damage to plant), BIDPI: 0
  damage to plant (100=total damage to plant; 0=no damage to plant), BRAPL: 80
  damage to plant (100=total damage to plant; 0=no damage to plant), CYPES: 0
  damage to plant (100=total damage to plant; 0=no damage to plant), EPHHL: 0
  damage to plant (100=total damage to plant; 0=no damage to plant), GLXMA: 0
  damage to plant (100=total damage to plant; 0=no damage to plant), IPOHE: 0
  damage to plant (100=total damage to plant; 0=no damage to plant), SORVU: 0
Rate 500
  damage to plant (100=total damage to plant; 0=no damage to plant), BIDPI: 0
  damage to plant (100=total damage to plant; 0=no damage to plant), BRAPL: 80
  damage to plant (100=total damage to plant; 0=no damage to plant), CYPES: 10
  damage to plant (100=total damage to plant; 0=no damage to plant), EPHHL: 0
  damage to plant (100=total damage to plant; 0=no damage to plant), GLXMA: 0
  damage to plant (100=total damage to plant; 0=no damage to plant), IPOHE: 0
  damage to plant (100=total damage to plant; 0=no damage to plant), SORVU: 0
Rates 15
  CHEAL damage rating: 0
  GALAP damage rating: 0
  KCHSC damage rating: 0
  LOLPE damage rating: 0
  POAAN damage rating: 0
  STEME damage rating: 0
  VERPE damage rating: 0
Rates 30
  CHEAL damage rating: 0
  GALAP damage rating: 0
  KCHSC damage rating: 0
  LOLPE damage rating: 0
  POAAN damage rating: 0
  STEME damage rating: 0
  VERPE damage rating: 0
Rates 60
  CHEAL damage rating: 0
  GALAP damage rating: 0
  KCHSC damage rating: 0
  LOLPE damage rating: 0
  POAAN damage rating: 0
  STEME damage rating: 0
  VERPE damage rating: 0
Rates 130
  CHEAL damage rating: 0
  GALAP damage rating: 0
  KCHSC damage rating: 0
  LOLPE damage rating: 30
  POAAN damage rating: 30
  STEME damage rating: 10
  VERPE damage rating: 0
Rates 250
  CHEAL damage rating: 10
  GALAP damage rating: 0
  KCHSC damage rating: 0
  LOLPE damage rating: 90
  POAAN damage rating: 60
  STEME damage rating: 40
  VERPE damage rating: 10
Rates 500
  CHEAL damage rating: 10
  GALAP damage rating: 20
  KCHSC damage rating: 0
  LOLPE damage rating: 90
  POAAN damage rating: 100
  STEME damage rating: 70
  VERPE damage rating: 80
Rate 15, 20 DAA
  damage to plant, ALOMY: 0
  damage to plant, AVEFA: 0
  damage to plant, BEAVA: 0
  damage to plant, BROTE: 0
  damage to plant, BRSNN: 0
  damage to plant, HORVW: 0
  damage to plant, SINAR: 0
Rate 30, 20 DAA
  damage to plant, ALOMY: 0
  damage to plant, AVEFA: 0
  damage to plant, BEAVA: 0
  damage to plant, BROTE: 0
  damage to plant, BRSNN: 0
  damage to plant, HORVW: 0
  damage to plant, SINAR: 0
Rate 60, 20 DAA
  damage to plant, ALOMY: 0
  damage to plant, AVEFA: 0
  damage to plant, BEAVA: 0
  damage to plant, BROTE: 0
  damage to plant, BRSNN: 0
  damage to plant, HORVW: 0
  damage to plant, SINAR: 0
Rate 130, 20 DAA
  damage to plant, ALOMY: 10
  damage to plant, AVEFA: 10
  damage to plant, BEAVA: 0
  damage to plant, BROTE: 0
  damage to plant, BRSNN: 0
  damage to plant, HORVW: 10
  damage to plant, SINAR: 0
Rate 250, 20 DAA
  damage to plant, ALOMY: 70
  damage to plant, AVEFA: 50
  damage to plant, BEAVA: 0
  damage to plant, BRSNN: 0
  damage to plant, HORVW: 40
  damage to plant, SINAR: 0
Rate 500, 20 DAA
  damage to plant, ALOMY: 70
  damage to plant, AVEFA: 90
  damage to plant, BEAVA: 0
  damage to plant, BROTE: 10
  damage to plant, BRSNN: 10
  damage to plant, HORVW: 30
  damage to plant, SINAR: 0
Rates 15, 20 DAA
  ABUTH damage to plant (100=total damage; 0=no damage): 0
  AMARE damage to plant (100=total damage; 0=no damage): 0
  DIGSA damage to plant (100=total damage; 0=no damage): 20
  ECHCG damage to plant (100=total damage; 0=no damage): 0
  ORYSA damage to plant (100=total damage; 0=no damage): 0
  PANMI damage to plant (100=total damage; 0=no damage): 0
  SETFA damage to plant (100=total damage; 0=no damage): 0
Rates 30, 20 DAA
  ABUTH damage to plant (100=total damage; 0=no damage): 0
  AMARE damage to plant (100=total damage; 0=no damage): 0
  DIGSA damage to plant (100=total damage; 0=no damage): 90
  ECHCG damage to plant (100=total damage; 0=no damage): 10
  ORYSA damage to plant (100=total damage; 0=no damage): 0
  PANMI damage to plant (100=total damage; 0=no damage): 0
  SETFA damage to plant (100=total damage; 0=no damage): 20
Rates 60, 20 DAA
  ABUTH damage to plant (100=total damage; 0=no damage): 0
  AMARE damage to plant (100=total damage; 0=no damage): 0
  DIGSA damage to plant (100=total damage; 0=no damage): 90
  ECHCG damage to plant (100=total damage; 0=no damage): 30
  ORYSA damage to plant (100=total damage; 0=no damage): 0
  PANMI damage to plant (100=total damage; 0=no damage): 0
  SETFA damage to plant (100=total damage; 0=no damage): 70
Rates 130, 20 DAA
  ABUTH damage to plant (100=total damage; 0=no damage): 0
  AMARE damage to plant (100=total damage; 0=no damage): 0
  DIGSA damage to plant (100=total damage; 0=no damage): 90
  ECHCG damage to plant (100=total damage; 0=no damage): 20
  ORYSA damage to plant (100=total damage; 0=no damage): 0
  PANMI damage to plant (100=total damage; 0=no damage): 0
  SETFA damage to plant (100=total damage; 0=no damage): 90
Rates 250, 20 DAA
  ABUTH damage to plant (100=total damage; 0=no damage): 0
  AMARE damage to plant (100=total damage; 0=no damage): 70
  DIGSA damage to plant (100=total damage; 0=no damage): 90
  ECHCG damage to plant (100=total damage; 0=no damage): 60
  ORYSA damage to plant (100=total damage; 0=no damage): 0
  PANMI damage to plant (100=total damage; 0=no damage): 0
  SETFA damage to plant (100=total damage; 0=no damage): 90
Rates 500, 20 DAA
  ABUTH damage to plant (100=total damage; 0=no damage): 0
  AMARE damage to plant (100=total damage; 0=no damage): 60
  DIGSA damage to plant (100=total damage; 0=no damage): 90
  ECHCG damage to plant (100=total damage; 0=no damage): 90
  ORYSA damage to plant (100=total damage; 0=no damage): 0
  PANMI damage to plant (100=total damage; 0=no damage): 0
  SETFA damage to plant (100=total damage; 0=no damage): 90
